Results: paper PMC9848259 (Journal of Enzyme Inhibition and Medicinal Chemistry, 2023)

Key:
[1] = molecular target: T1, AChE (from the electric eel) (Electrophorus electricus, UniProt O42275); assay: biochemical; conditions: for Selectivity for AChE: IC50(BuChE)/IC50(AChE); for IC50: means ± SD of three experiments
T1 construct: purchased Sigma Aldrich
Experimental: (§1) The capacity of the novel cyclopentaquinoline hybrids to inhibit AChE (from the electric eel) and BuChE (from equine serum) were determined by the modified colorimetric Ellman’s method[38]^,[39]. Both enzymes, DTNB – Ellman’s reagent (5,5′-dithiobis-(2-nitrobenzoic acid)), acetyltiocholine iodide (ATCI) were obtained from Sigma Aldrich. AChE and BuChE samples in phosphate buffer (PBS) pH 8.0 were incubated in 96-well plates in the presence of the substrate (ATCI), 76 µl of DTNB and the tested compound at various concentration at room temperature for 10 min (AChE) or eight minutes (BuChE).

[2] = molecular target: T2, BuChE (from equine serum) (Equus caballus, UniProt P81908); assay: biochemical; conditions: for Selectivity for BuChE: IC50(AChE)/IC50(BuChE); for IC50: means ± SD of three experiments
T2 construct: purchased Sigma Aldrich; host or cells: equine serum
T2 sequence (P81908 whole entry): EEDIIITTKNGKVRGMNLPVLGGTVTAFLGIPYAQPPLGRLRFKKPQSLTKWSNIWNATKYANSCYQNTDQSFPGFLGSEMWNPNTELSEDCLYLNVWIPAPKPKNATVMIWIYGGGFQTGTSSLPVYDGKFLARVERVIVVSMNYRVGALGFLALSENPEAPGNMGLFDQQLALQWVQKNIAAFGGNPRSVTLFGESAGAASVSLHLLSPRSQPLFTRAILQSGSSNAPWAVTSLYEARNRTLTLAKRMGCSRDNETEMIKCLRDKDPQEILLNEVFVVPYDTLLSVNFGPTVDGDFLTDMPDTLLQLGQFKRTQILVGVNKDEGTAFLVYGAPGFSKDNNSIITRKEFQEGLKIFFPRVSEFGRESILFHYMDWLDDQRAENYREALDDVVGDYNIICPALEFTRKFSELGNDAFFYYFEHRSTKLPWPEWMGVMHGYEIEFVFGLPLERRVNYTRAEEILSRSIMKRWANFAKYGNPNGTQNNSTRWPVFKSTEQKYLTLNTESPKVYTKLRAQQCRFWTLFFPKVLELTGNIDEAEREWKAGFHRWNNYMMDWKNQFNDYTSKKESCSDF
Experimental: as §1

Aβ42 = molecular target: T3, Aβ42 (Homo sapiens, UniProt P05067); assay: In cellulo β-amyloid assay, Th-S fluorescence in E. coli over-expressing Aβ42; format: cell-based, Escherichia coli; conditions: 10 µM
T3 construct: expressed in transfected cells; host or cells: Escherichia coli BL21 (DE3), pET vector
T3 sequence (P05067 672-713): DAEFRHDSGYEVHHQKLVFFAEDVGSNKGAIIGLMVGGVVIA
Experimental: Inhibition assay in Escherichia coli cells over-expressing amyloid proteins. […] Escherichia coli competent cells BL21 (DE3) were transformed with the required pET vectors carrying the DNA sequence of Aβ42 peptide. Because of the addition of the initiation codon ATG in front of genes, the over-expressed Aβ42 contains an additional methionine residue at their N terminus. For overnight culture preparation, a colony of BL21 (DE3) bearing the plasmid to be expressed was inoculated in 10 ml of M9 minimal medium containing 50 μg/ml of kanamycin at 37 °C. […] The bacterial culture was then grown at 37 °C, with orbital agitation of 250 rpm. When the cell density reached OD600nm–0.6, 980 μL of the culture were transferred into 1.5 ml conical tubes containing 10 μL of the compound to be tested dissolved in DMSO, and 10 μL of 100 mM isopropyl 1-thio-β-D-galactopyranoside (IPTG). The final concentration of the compound was set to 10 μM. The samples were grown overnight at 37 °C under agitation at 1400 rpm, using a Thermomixer (Eppendorf, Hamburg, Germany). […]
The fluorescence normalisation was carried out considering as 100% the Th-S fluorescence of the bacterial cells expressing Aβ42 in the absence of drug, and 0% the Th-S fluorescence of the bacterial cells non-expressing Aβ42 (in absence of the protein production inductor, IPTG). […]

[3] = calibration substance; cited from earlier work
[4] = tested on: Human hepatic stellate cells (HSCs); assay: in vitro; format: cell-based; conditions: 0.1 µM, 24 h
Experimental: Human hepatic stellate cells (HSCs, Sciencell) were grown in the Stellate Cell Medium (Sciencell) supplemented with 2% Foetal Bovine Serum (Sciencell), 1% Stellate Cell Growth Supplement (Sciencell) and 1% penicillin/streptomycin solution (Sciencell). The cells were cultured in the incubator at 37 °C and 5% CO2. To start the experiment, the cells were seeded at a density of 5 × 10^3 cells/well in 96-well plates and incubated (37 °C, 5% CO2) for 24 h. After incubation, medium was removed from the wells and the cells were exposed to 100 µl of the compound over a range of concentrations (from 0.1 to 10 µM) or 100 µl of culture medium alone (blank control). The cells were then further incubated for 24 h. After this time, the medium was removed, the cells were washed with PBS and 50 µl of MTT solution (0.75 mg/ml) was added to each well. The plates were incubated in the dark at 37 °C for another two hours. The MTT solution was then removed from the wells and 100 µl of DMSO was added. The plates were incubated at room temperature for 10 min and then 5 µl of Sorensen Buffer was added to each well. The plates were swayed and the absorbance at 570 nm was measured with a microplate reader (Synergy H1, BioTek, Winooski, VT, USA). The cell viability was expressed as a percentage of the control values (blank control)[40]^,[46]^,[47].

SH-SY5Y cells [5] = assay: Neuroprotection against H2O2-induced oxidative stress, MTT test; format: cell-based, human; conditions: H2O2 100 µM
SH-SY5Y cells [6] = assay: Neuroprotection against rotenone/oligomycin A, pre-incubation, MTT test; format: cell-based, human; conditions: Rotenone/Oligomycin A 30/10 µM, compound 0.001 µM
SH-SY5Y cells [7] = assay: Neuroprotection against rotenone/oligomycin A, co-incubation, MTT test; format: cell-based, human; conditions: Rotenone/Oligomycin A 30/10 µM
hyaluronidase = molecular target: T4, hyaluronidase (Bos taurus, UniProt Q2YDK3); assay: Hyaluronidase inhibition test (turbidimetric); format: biochemical
T4 sequence (Q2YDK3 36-553): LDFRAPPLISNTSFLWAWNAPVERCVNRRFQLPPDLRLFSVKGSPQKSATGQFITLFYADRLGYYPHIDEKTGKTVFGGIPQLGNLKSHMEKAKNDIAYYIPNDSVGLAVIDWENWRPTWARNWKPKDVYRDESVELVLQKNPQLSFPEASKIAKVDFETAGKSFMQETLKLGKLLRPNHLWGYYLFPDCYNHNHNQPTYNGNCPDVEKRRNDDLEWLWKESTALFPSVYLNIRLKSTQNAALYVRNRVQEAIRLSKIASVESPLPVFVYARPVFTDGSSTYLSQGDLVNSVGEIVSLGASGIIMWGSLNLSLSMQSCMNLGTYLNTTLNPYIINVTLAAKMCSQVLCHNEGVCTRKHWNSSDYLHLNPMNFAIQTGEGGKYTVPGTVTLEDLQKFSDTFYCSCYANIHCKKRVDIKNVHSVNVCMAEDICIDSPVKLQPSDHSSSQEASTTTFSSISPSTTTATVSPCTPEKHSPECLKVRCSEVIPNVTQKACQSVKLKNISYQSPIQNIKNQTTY
Experimental: Hyaluronidase inhibition was established by turbidimetry according to USP XXII-NF XVII[43], which was further adapted to use in 96-well plates by Piwowarski et al.[44] and the principle of this assay is based on the following reaction: hyaluronic acid→hyaluronidase depolymerization products+[…]
The ability to inhibit hyaluronidase was assessed using a turbidimetric method based on spectrophotometric measurement of turbidity resulting from the formation of hyaluronan-bovine albumin complexes in an acidic environment. The analysis was performed against a positive control. Briefly, 20 µl of the tested compound in monosodium phosphate buffer (pH 7.0) was added to 40 µl of hyaluronidase solution (22.55 U/ml, Sigma Aldrich) in the same buffer. The mixture was incubated for 10 min in the dark at 37 °C. Next, 40 µl of hyaluronic acid solution (0.03%, Sigma Aldrich) in monosodium phosphate buffer (pH 5.35) was added to all wells and the mixture was further kept in the dark at 37 °C for 45 min. Finally, 300 µl of bovine serum albumin solution (0.1%, Serva) in sodium acetate buffer (pH 3.75) was added to the mixture, and the 96-well plate was incubated at room temperature for next 10 min. Changes in turbidity at 600 nm were measured by a microplate reader (BioTek, Winooski, VT, USA). Heparin (WZF, Polfa) was used as a positive control. […]

T1 sequence (O42275 24-633): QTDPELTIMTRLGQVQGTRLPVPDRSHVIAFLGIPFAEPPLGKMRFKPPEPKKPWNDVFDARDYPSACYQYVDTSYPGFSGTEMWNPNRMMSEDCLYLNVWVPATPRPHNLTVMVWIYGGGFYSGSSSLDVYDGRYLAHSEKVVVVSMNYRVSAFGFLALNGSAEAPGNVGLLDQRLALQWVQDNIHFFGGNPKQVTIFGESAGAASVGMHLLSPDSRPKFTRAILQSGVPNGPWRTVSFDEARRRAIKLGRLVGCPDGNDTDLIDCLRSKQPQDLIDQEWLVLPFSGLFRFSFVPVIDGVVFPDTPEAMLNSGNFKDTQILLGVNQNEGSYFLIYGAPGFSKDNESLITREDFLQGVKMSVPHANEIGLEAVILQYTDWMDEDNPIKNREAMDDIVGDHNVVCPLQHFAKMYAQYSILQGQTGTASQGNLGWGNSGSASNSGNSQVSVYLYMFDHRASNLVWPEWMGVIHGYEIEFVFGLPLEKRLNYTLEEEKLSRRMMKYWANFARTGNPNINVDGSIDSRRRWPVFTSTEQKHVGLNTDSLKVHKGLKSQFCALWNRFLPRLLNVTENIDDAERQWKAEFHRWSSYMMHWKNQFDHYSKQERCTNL

Row | Compound | Selectivity for AChE [1] | IC50 [1] [nM] | Selectivity for BuChE [2] | IC50 [2] [nM] | also measured
1 | O=C(NCCNc1c2c(nc3ccccc13)CCC2)c1cc(Cl)cc(Cl)c1 [Compound 3a] | 0.15 | 1540 ± 121 | 6.88 | 225 ± 21 | 
2 | O=C(NCCCNc1c2c(nc3ccccc13)CCC2)c1cc(Cl)cc(Cl)c1 [Compound 3b] | 0.56 | 1180 ± 134 |  | 889 ± 27 | 
3 | O=C(NCCCCNc1c2c(nc3ccccc13)CCC2)c1cc(Cl)cc(Cl)c1 [Compound 3c] | 0.11 | 1160 ± 130 | 9.18 | 126 ± 7 | 
4 | O=C(NCCCCCNc1c2c(nc3ccccc13)CCC2)c1cc(Cl)cc(Cl)c1 [Compound 3d] | 5.33 | 211 ± 31 | 0.19 | 1120 ± 180 | 
5 | O=C(NCCCCCCCNc1c2c(nc3ccccc13)CCC2)c1cc(Cl)cc(Cl)c1 [Compound 3f] | 0.46 | 253 ± 42 | 2.16 | 117 ± 27 | 
6 | O=C(NCCCCCCCCNc1c2c(nc3ccccc13)CCC2)c1cc(Cl)cc(Cl)c1 [Compound 3g] | 0.22 | 1480 ± 133 | 4.50 | 330 ± 34 | 
7 | O=C(NCCCCCCCCCNc1c2c(nc3ccccc13)CCC2)c1cc(Cl)cc(Cl)c1 [Compound 3h] | 0.91 | 145 ± 13 | 1.10 | 131 ± 11 | 
8 | O=C(NCCCCCCCCNc1c2c(nc3cc(Cl)ccc13)CCCC2)c1ccc2nc(-c3ccc(Cl)cc3)c3c(c2c1)NCCC3 [DP128, reference compound] |  |  |  |  | anti-amyloid (inhibition) capacity for Aβ42 (Aβ42): 69.2 ± 4.1
9 | CC(CN1c2ccccc2Sc2ccccc21)N(C)C.Cl (stereo not drawn) [Promethazine HCl] |  |  |  |  | Experimental properties pKa [3]: 9.10[54]
10 | Nc1c2c(nc3ccccc13)CCCC2 [Tacrine, 9-amino-1,2,3,4-tetrahydroacridine, reference compound] |  |  |  |  | cell viability (hepatotoxicity, MTT) [4]: 100.67%
11 | Cc1c(C)c2c(c(C)c1O)CCC(C)(C(=O)O)O2 (stereo not drawn) [Trolox, reference compound] |  |  |  |  | % neuroprotection (SH-SY5Y cells [5]; compound 0.01 µM): 77.16%; % neuroprotection (SH-SY5Y cells [5]; compound 0.1 µM): 91.22%; % neuroprotection (SH-SY5Y cells [5]; compound 1 µM): 96.03%; % neuroprotection (SH-SY5Y cells [5]; compound 10 µM): 95.05%; % neuroprotection (SH-SY5Y cells [6]): 2.15%; % neuroprotection (SH-SY5Y cells [7]; compound 0.001 µM): 5.60%; % neuroprotection (SH-SY5Y cells [7]; compound 0.01 µM): 4.67%; % neuroprotection (SH-SY5Y cells [7]; compound 0.1 µM): 0.35%
12 | heparin |  |  |  |  | IC50 (hyaluronidase): 56400 ± 780 nM
